Measurements: article PMC9005681, “Use of AD Informer Set compounds to explore validity of novel targets in Alzheimer's disease pathology” (Alzheimer's & Dementia : Translational Research & Clinical …, 2022)
“And” between values parts separate entries of the source, which are not always exact repeats. Equal values may be shown once.

How the values were obtained:
Experiment in all cases: PDSP GPCR panel primary binding assays at 10 μM
[1] = target: T1, cloned human or rodent CNS receptors, channels, and transporters (PDSP panel) (Homo sapiens, UniProt P14416); settings: D2, primary assay
T1 construct: expressed in transfected cells
Method in brief: (§1)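 Secondary binding curves (11 points, triplicate) were run at targets where the 10 μM primary screen, done in quadruplicate, displaced over 50% of radio-labelled standard ligand on average. Primary screening covered 46–47 cloned human or rodent CNS targets; H3, PBR and GABAA were not followed up.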

[2] = target: T2, cloned human or rodent CNS receptors, channels, and transporters (PDSP panel) (Homo sapiens, UniProt P23975); settings: NET, primary assay
T2 construct: expressed in transfected cells
Method in brief: as §1

[3] = target: T3, cloned human or rodent CNS receptors, channels, and transporters (PDSP panel) (Homo sapiens, UniProt P25100); settings: Alpha1D, primary assay
T3 construct: expressed in transfected cells
T3 sequence (P25100 1-572): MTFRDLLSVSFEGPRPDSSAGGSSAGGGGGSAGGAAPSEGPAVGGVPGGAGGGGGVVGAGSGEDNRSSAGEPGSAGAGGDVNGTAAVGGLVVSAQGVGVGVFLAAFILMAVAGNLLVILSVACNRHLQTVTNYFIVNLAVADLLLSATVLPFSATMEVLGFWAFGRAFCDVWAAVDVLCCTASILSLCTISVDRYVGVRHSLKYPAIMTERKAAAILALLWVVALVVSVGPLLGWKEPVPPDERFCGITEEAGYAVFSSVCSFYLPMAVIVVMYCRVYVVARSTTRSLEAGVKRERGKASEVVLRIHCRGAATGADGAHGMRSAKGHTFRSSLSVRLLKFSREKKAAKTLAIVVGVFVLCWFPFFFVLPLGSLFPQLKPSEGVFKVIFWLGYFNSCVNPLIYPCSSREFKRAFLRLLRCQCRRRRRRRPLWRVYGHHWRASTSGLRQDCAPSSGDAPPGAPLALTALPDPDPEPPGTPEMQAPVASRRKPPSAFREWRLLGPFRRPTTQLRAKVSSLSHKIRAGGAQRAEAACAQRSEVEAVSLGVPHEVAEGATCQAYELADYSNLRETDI
Method in brief: as §1

[4] = target: T4, cloned human or rodent CNS receptors, channels, and transporters (PDSP panel) (Homo sapiens, UniProt P28221); settings: 5-HT1D, primary assay
T4 construct: expressed in transfected cells
Method in brief: as §1

[5] = target: T5, cloned human or rodent CNS receptors, channels, and transporters (PDSP panel) (Homo sapiens, UniProt P31645); settings: SERT, primary assay
T5 construct: expressed in transfected cells
Method in brief: as §1

[6] = target: T6, cloned human or rodent CNS receptors, channels, and transporters (PDSP panel) (Homo sapiens, UniProt P35367); settings: H1, primary assay
T6 construct: expressed in transfected cells
Method in brief: as §1

[7] = target: T7, cloned human or rodent CNS receptors, channels, and transporters (PDSP panel) (Homo sapiens, UniProt P41595); settings: 5-HT2B, primary assay
T7 construct: expressed in transfected cells
Method in brief: as §1

[8] = tested on: cloned human or rodent CNS receptors, channels, and transporters (PDSP panel); settings: primary assay; for Mean %: mean inhibition; for Inhibition 1: replicate 1; for Inhibition 2: replicate 2; for Inhibition 3: replicate 3; for Inhibition 4: replicate 4
Method in brief: as §1

T4 sequence (P28221 whole entry): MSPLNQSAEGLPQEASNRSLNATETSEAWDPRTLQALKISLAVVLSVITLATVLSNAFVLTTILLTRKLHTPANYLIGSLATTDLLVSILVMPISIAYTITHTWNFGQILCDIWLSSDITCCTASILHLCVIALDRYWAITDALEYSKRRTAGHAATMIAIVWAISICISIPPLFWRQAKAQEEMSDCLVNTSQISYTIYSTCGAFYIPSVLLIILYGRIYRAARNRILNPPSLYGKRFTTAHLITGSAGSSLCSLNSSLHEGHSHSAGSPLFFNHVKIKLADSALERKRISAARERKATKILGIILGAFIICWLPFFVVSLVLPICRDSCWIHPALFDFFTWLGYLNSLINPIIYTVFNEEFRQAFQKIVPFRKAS
T6 sequence (P35367 whole entry): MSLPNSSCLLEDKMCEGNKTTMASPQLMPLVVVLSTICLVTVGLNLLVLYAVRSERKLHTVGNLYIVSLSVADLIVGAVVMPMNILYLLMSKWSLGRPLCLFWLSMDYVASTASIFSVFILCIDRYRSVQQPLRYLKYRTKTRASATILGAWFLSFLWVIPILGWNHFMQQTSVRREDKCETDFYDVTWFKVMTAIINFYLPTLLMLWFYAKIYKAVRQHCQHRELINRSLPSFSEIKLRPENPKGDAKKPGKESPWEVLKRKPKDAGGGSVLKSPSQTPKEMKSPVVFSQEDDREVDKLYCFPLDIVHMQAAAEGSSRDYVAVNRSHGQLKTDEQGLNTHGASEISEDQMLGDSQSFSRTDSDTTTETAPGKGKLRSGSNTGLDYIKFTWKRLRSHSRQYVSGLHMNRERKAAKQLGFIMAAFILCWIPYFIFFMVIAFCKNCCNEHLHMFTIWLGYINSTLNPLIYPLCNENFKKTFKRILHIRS
T1 sequence (P14416 whole entry): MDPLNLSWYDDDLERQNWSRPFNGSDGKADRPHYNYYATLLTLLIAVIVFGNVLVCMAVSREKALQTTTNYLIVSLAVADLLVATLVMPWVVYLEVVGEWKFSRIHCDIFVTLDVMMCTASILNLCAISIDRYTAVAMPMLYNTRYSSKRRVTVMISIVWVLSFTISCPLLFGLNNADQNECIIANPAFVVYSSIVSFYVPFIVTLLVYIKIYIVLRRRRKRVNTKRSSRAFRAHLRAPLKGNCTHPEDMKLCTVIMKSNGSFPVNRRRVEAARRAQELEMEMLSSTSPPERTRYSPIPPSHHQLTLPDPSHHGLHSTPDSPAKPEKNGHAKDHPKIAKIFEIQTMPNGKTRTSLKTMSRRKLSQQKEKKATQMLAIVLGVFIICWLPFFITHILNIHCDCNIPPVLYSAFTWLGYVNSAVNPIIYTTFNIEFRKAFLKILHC
T2 sequence (P23975 whole entry): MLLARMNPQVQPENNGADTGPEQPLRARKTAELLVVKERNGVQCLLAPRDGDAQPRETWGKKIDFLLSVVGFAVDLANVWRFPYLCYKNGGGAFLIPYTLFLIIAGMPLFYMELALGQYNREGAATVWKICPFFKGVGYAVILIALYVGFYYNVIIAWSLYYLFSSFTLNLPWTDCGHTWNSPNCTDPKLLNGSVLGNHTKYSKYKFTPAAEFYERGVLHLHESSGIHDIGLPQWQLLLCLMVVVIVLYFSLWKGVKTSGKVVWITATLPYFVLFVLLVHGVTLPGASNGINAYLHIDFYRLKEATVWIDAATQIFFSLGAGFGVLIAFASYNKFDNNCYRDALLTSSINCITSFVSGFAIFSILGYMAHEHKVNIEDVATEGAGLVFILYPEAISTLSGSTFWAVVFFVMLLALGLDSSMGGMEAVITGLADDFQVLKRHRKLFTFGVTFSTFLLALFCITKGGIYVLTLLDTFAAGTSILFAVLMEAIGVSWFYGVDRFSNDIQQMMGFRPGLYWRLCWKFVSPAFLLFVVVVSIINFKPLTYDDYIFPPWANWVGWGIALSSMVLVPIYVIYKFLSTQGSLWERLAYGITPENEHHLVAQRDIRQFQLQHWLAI
T7 sequence (P41595 whole entry): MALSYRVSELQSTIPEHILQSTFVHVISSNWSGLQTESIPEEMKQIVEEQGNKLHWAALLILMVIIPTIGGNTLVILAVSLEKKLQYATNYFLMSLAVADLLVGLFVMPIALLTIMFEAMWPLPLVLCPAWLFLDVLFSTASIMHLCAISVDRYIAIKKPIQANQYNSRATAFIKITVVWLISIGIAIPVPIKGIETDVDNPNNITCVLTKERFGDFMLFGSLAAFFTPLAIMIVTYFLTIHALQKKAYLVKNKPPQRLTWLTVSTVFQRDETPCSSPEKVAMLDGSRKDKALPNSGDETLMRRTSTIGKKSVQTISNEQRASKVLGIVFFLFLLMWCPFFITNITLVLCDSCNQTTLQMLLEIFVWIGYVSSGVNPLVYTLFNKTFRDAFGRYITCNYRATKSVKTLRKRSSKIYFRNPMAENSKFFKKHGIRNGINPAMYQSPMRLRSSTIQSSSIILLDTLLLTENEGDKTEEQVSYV
T5 sequence (P31645 whole entry): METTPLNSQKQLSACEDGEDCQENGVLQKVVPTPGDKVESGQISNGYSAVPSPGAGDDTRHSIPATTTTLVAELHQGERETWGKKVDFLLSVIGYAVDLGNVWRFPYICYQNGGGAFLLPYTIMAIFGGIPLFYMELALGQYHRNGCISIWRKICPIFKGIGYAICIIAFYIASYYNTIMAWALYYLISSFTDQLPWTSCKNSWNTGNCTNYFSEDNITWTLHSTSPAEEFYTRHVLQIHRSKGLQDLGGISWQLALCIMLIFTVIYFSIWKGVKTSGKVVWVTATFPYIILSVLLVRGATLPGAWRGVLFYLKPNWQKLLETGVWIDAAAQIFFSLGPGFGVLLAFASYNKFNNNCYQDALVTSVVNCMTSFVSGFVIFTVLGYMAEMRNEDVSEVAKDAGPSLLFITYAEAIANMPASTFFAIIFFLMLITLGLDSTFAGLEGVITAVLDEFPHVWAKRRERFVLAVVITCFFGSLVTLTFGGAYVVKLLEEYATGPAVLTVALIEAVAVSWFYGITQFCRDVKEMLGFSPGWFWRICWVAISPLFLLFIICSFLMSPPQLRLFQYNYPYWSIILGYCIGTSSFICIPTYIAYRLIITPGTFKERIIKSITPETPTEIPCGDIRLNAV

Structure (SMILES): CNc1nc(C)nc(N[C@H]2CCC[C@@H](C(=O)NCc3ccc(C#N)cc3C(F)(F)F)C2)n1 [UNC10302679A, GSK2256294A]
- Mean % ([1]; mean inhibition): -7.22%
- Inhibition 1 ([1]; replicate 1): 3.31%
- Inhibition 2 ([1]; replicate 2): -5.21%
- Inhibition 3 ([1]; replicate 3): -10.66%
- Inhibition 4 ([1]; replicate 4): -16.31%
- Mean % ([2]; mean inhibition): -0.13% and 6.71%
- Inhibition 1 ([2]; replicate 1): 26.63% and -24.8%
- Inhibition 2 ([2]; replicate 2): 1.57% and -7.07%
- Inhibition 3 ([2]; replicate 3): -2.48% and 7.39%
- Inhibition 4 ([2]; replicate 4): -26.22% and 51.32%
- Mean % ([3]; mean inhibition): -12.86%
- Inhibition 1 ([3]; replicate 1): -4.16%
- Inhibition 2 ([3]; replicate 2): -21.92%
- Inhibition 3 ([3]; replicate 3): -15.38%
- Inhibition 4 ([3]; replicate 4): -9.98%
- Mean % ([4]; mean inhibition): 6.14%
- Inhibition 1 ([4]; replicate 1): 26.13%
- Inhibition 2 ([4]; replicate 2): 1.56%
- Inhibition 3 ([4]; replicate 3): 1.56%
- Inhibition 4 ([4]; replicate 4): -4.69%
- Mean % ([5]; mean inhibition): 7.19% and 15.11%
- Inhibition 1 ([5]; replicate 1): 10.02% and 22.3%
- Inhibition 2 ([5]; replicate 2): -5.87% and 16.69%
- Inhibition 3 ([5]; replicate 3): 7.61% and 10.49%
- Inhibition 4 ([5]; replicate 4): 16.99% and 10.96%
- Mean % ([6]; mean inhibition): 71.69%
- Inhibition 1 ([6]; replicate 1): 93.05%
- Inhibition 2 ([6]; replicate 2): 75.46%
- Inhibition 3 ([6]; replicate 3): 68.14%
- Inhibition 4 ([6]; replicate 4): 50.11%
- Mean % ([7]; mean inhibition): -22.71%
- Inhibition 1 ([7]; replicate 1): -0.89%
- Inhibition 2 ([7]; replicate 2): -25.64%
- Inhibition 3 ([7]; replicate 3): -26.48%
- Inhibition 4 ([7]; replicate 4): -37.81%
- Mean % ([8]; Alpha1A): -0.8%
- Inhibition 1 ([8]; Alpha1A): -1.03%
- Inhibition 2 ([8]; Alpha1A): -7.95%
- Inhibition 3 ([8]; Alpha1A): -14.5%
- Inhibition 4 ([8]; Alpha1A): 20.29%
- Mean % ([8]; Alpha2A): -5.79%
- Inhibition 1 ([8]; Alpha2A): -3.6%
- Inhibition 2 ([8]; Alpha2A): -9.38%
- Inhibition 3 ([8]; Alpha2A): -7.24%
- Inhibition 4 ([8]; Alpha2A): -2.95%
- Mean % ([8]; Alpha2C): 1.02%
- Inhibition 1 ([8]; Alpha2C): 11.32%
- Inhibition 2 ([8]; Alpha2C): 1.35%
- Inhibition 3 ([8]; Alpha2C): -11.52%
- Inhibition 4 ([8]; Alpha2C): 2.93%
- Mean % ([8]; BZP Rat Brain Site): 4.01%
- Inhibition 1 ([8]; BZP Rat Brain Site): 13.82%
- Inhibition 2 ([8]; BZP Rat Brain Site): 5.95%
- Inhibition 3 ([8]; BZP Rat Brain Site): -2.77%
- Inhibition 4 ([8]; BZP Rat Brain Site): -0.97%
- Mean % ([8]; DOR): 1.65%
- Inhibition 1 ([8]; DOR): 14.12%
- Inhibition 2 ([8]; DOR): -1.97%
- Inhibition 3 ([8]; DOR): -1.78%
- Inhibition 4 ([8]; DOR): -3.77%
- Mean % ([8]; GABAA): -6.38% and -12.1%
- Inhibition 1 ([8]; GABAA): -3.42% and -8.72%
- Inhibition 2 ([8]; GABAA): -12.29% and -15.74%
- Inhibition 3 ([8]; GABAA): -18.95% and -24.39%
- Inhibition 4 ([8]; GABAA): 9.15% and 0.47%
- Mean % ([8]; H3): 13.41%
- Inhibition 1 ([8]; H3): 10.42%
- Inhibition 2 ([8]; H3): 5.17%
- Inhibition 3 ([8]; H3): 19.16%
- Inhibition 4 ([8]; H3): 18.87%
- Mean % ([8]; H4): -11.7%
- Inhibition 1 ([8]; H4): -16.74%
- Inhibition 2 ([8]; H4): -15.78%
- Inhibition 3 ([8]; H4): -13.62%
- Inhibition 4 ([8]; H4): -0.66%
- Mean % ([8]; Sigma 1): 4.17%
- Mean % ([8]; Sigma 2): -5.66%
